From ChEMBL document CHEMBL1201862, “PubChem BioAssay data set” (2004)
Active and inactive are the calls of the source.

Experiments:
[1] = target: T1, Coagulation factor XII (Homo sapiens, UniProt P00748); assay type: functional;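 further: activated factor XIIa alpha cleaving a fluorogenic AMC peptide substrate; inhibitor potency from loss of enzyme activity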
T1 sequence (P00748 whole entry): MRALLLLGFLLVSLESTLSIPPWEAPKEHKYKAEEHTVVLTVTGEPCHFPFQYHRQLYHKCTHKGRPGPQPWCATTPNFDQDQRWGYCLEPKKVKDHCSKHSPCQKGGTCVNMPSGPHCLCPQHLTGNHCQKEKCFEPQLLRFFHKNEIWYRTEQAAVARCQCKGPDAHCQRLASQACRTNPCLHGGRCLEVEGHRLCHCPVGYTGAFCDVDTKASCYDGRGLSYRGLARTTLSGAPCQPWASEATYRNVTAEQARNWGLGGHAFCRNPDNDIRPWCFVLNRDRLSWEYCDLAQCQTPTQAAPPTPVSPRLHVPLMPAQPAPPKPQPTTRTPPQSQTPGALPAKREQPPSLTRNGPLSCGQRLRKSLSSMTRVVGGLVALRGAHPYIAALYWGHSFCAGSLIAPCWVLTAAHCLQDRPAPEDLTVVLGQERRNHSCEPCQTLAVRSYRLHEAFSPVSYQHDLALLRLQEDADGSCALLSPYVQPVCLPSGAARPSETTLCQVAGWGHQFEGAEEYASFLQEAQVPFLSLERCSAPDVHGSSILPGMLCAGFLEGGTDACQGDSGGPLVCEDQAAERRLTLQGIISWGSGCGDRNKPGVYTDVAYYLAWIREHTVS

[2] = target: Protein Wnt-3a (Mus musculus, UniProt P27467); assay: antagonism of Wnt3a pathway luciferase reporter – Wnt-LIGHT cells, luminescence, selectivity assay for Gli-SUFU antagonist project, dose response (AID 651570); assay type: functional; settings: read-out: IC50_Mean;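 further: Wnt-LIGHT reporter cells stimulated with conditioned medium from Wnt3a-producing cells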
[3] = target: T2, High affinity choline transporter 1 (Homo sapiens, UniProt Q9GZV3); assay: human choline transporter blockers, potency – cell-based, 5-point CRC, membrane potential dye, dose response (AID 504840); assay type: functional
T2 sequence (Q9GZV3 whole entry): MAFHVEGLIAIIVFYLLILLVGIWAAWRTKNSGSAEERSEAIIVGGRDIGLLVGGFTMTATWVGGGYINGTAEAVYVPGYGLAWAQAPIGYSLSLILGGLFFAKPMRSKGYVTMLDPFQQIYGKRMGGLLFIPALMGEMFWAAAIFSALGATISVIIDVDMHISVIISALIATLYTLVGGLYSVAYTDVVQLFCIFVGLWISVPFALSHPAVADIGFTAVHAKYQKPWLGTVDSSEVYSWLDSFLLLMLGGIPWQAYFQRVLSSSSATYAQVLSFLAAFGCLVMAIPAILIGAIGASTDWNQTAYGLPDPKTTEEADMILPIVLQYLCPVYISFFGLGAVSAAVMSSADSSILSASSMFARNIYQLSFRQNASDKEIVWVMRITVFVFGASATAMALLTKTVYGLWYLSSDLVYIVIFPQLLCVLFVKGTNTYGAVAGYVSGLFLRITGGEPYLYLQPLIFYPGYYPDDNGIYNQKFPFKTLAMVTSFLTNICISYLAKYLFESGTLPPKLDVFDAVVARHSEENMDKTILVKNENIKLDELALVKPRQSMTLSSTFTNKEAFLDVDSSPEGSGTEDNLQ

[4] = target: T2, High affinity choline transporter 1; assay: human choline transporter blockers, potency – cell-based, 10-point CRC, membrane potential dye, dose response (AID 588401); assay type: functional;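 further: membrane potential dye fluorescence of choline-evoked depolarization via CHT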
[5] = target: Estrogen receptor beta (Homo sapiens, UniProt Q92731);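 further: recombinant ER-beta bound to coactivator SRC1 peptide in presence of estradiol agonist; inhibitors block coactivator peptide binding and lower the FRET signal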
[6] = target: T3, Melanocortin receptor 4 (Homo sapiens, UniProt P32245); assay type: functional, cell-based;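 further: Cell-based assay with luminescence read-out, confirmatory dose-response testing for agonist activity of biased ligands at MC4R; human U2OS cells with tagged receptor and beta-arrestin; potency of agonists that increase receptor coupling to beta-arrestin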
[7] = target: Cytochrome P450 2D6 (Homo sapiens, UniProt P10635);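 further: CYP2D6 member of a cytochrome P450 panel assay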
[8] = target: Cytochrome P450 3A4 (Homo sapiens, UniProt P08684);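 further: CYP3A4 tested as one member of a cytochrome P450 panel screen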
[9] = target: Cytochrome P450 2C9 (Homo sapiens, UniProt P11712)
[10] = target: T3, Melanocortin receptor 4; assay: inhibitors of MC4R cAMP signaling – cell-based, TR-FRET, biased antagonists, dose response (AID 602298); assay type: functional;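 further: antagonist potency against agonist-stimulated cAMP production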
[11] = cAMP pathway inhibition in counterscreen cell line – TR-FRET cAMP detection, counter-screen for MC4R biased antagonist project, dose response (AID 602305); assay type: functional, cell-based;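 further: U2OS cells stimulated with forskolin near its EC80 as the cAMP inducer; potency is for inhibition of forskolin-stimulated cAMP signaling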
[12] = target: Adenosylmethionine-8-amino-7-oxononanoate aminotransferase (Mycobacterium tuberculosis, UniProt P9WQ81); assay: Mycobacterium tuberculosis BioA enzyme inhibitor Measured in Biochemical System Using Plate Reader - 2163-02_Inhibitor_Dose_CherryPick_Activity.; assay type: functional, Mycobacterium tuberculosis UT205
[13] = suppression of NO production in INS-1E cells – cell-based, Griess absorbance, dry powder, set 3, dose response (AID 488870); assay type: functional; settings: Rattus norvegicus
[14] = system: INS1; assay: suppression of NO production in INS-1E cells – cell-based, Griess absorbance, dry powder, set 2, dose response (AID 488868); assay type: functional; settings: Rattus norvegicus
[15] = P. falciparum Dd2 growth inhibitors, dose response, SYBR Green, cherry-picked samples (AID 1159567); assay type: functional, cell-based
[16] = target: Aryl hydrocarbon receptor (Homo sapiens, UniProt P35869); settings: Potency;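 further: confirmatory quantitative high-throughput screen measuring activation of the AhR signaling pathway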
[17] = target: T4, Apoptotic protease-activating factor 1 (Homo sapiens, UniProt O14727); assay: SAR analysis of small molecule Activators of Apaf-1 in a Fluorescent assay.; assay type: functional; settings: read-out: EC50_Mean;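 further: caspase-3 cleavage of fluorogenic Rh110 DEVD substrate downstream of apoptosome activation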
T4 sequence (O14727 whole entry): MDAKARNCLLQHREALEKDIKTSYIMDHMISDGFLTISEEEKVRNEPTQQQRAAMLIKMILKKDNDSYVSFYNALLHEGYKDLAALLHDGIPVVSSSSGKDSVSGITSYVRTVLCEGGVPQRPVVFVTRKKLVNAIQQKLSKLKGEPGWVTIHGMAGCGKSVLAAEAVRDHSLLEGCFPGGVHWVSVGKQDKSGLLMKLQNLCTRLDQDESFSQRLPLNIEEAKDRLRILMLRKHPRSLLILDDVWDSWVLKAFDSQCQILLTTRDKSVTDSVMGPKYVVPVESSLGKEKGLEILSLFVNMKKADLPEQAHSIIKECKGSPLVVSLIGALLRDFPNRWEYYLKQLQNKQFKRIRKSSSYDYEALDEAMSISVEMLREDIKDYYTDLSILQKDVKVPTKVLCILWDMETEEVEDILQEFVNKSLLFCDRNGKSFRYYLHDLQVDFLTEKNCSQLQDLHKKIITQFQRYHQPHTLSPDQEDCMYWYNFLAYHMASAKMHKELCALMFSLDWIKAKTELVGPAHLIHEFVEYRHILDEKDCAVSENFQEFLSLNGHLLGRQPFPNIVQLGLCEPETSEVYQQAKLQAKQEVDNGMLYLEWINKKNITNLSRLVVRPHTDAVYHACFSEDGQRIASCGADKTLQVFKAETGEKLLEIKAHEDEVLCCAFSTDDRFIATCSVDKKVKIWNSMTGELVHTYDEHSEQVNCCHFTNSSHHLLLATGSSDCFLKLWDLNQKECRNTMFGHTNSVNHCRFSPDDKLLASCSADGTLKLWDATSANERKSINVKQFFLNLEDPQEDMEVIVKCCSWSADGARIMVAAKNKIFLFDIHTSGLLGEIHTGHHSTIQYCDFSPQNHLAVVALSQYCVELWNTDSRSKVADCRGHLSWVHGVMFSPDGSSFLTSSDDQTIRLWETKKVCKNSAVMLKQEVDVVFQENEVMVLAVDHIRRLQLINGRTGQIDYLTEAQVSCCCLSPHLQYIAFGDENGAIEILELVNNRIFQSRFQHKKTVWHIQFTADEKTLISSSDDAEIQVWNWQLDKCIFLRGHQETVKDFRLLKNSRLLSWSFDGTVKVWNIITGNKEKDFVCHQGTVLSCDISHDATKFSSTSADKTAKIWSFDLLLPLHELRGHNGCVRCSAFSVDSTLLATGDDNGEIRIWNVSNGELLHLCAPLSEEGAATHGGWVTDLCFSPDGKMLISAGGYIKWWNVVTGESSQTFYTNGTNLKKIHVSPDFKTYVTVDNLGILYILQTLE

[18] = target: Beta Lactamase (Pseudomonas aeruginosa, UniProt Q932Y6);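 further: confirmatory high-throughput screen measuring VIM-2 metallo-beta-lactamase inhibition by epi-absorbance in dose response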
[19] = system: BJ; assay: BJ-TERT fibroblast viability loss – cell-based, RAS-independent, luminescence, dose response (AID 1933); assay type: functional; settings: Homo sapiens
[20] = system: BJ; assay: cells; assay type: functional, cell-based; settings: Homo sapiens
[21] = target: Beta-lactamase (Pseudomonas aeruginosa, UniProt Q79MP6);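 further: biochemical dose-response test of metallo-beta-lactamase enzyme inhibition, read out by epi-absorbance; purified recombinant IMP-1 metallo-beta-lactamase with nitrocefin as substrate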
[22] = system: BJ; assay: BJ-TERT-LT-ST fibroblast viability loss – cell-based, RAS-independent, luminescence, dose response (AID 1935); assay type: functional; settings: Homo sapiens;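 further: BJ fibroblasts immortalized with TERT plus LT and ST oncogenes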
[23] = target: Beta-lactamase (Salmonella choleraesuis (strain SC-B67), UniProt Q5J463)
[24] = DRD fibroblast viability loss – cell-based, non-viral oncogenic, luminescence, dose response (AID 1934); assay type: functional; settings: Homo sapiens
[25] = target: Troponin, cardiac muscle (Homo sapiens, UniProt P19429+P45379+P63316); assay: Fluorescence-based biochemical high throughput dose response assay for activators of the calcium sensitivity of cardiac Regulated Thin Filaments (RTF). [Related pubchem assays (depositor defined):AID493008, AID493018, AID504382, AID504383]; assay type: protein-complex assay
[26] = target: T5, Endoribonuclease toxin MazF (Escherichia coli K-12, UniProt P0AE70); assay: activation of MazEF endoribonuclease cleavage – biochemical, fluorescence, single-stranded RNA substrate, uHTS hits, dose response (AID 588481); assay type: functional
T5 sequence (P0AE70 whole entry): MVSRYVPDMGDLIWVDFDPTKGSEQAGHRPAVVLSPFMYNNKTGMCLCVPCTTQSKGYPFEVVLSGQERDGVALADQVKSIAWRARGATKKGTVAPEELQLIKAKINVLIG

[27] = target: T5, Endoribonuclease toxin MazF; assay: substrate-only fluorescence increase artefacts – biochemical, single-stranded RNase substrate, counter-screen for MazEF activator project, dose response (AID 588502); assay type: functional
[28] = target: Aurora kinase A (Homo sapiens, UniProt O14965); assay type: functional;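 further: value from the Navigating the Kinome kinase panel profiling, panel entry STK6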
[29] = target: Aurora kinase B (Homo sapiens, UniProt Q96GD4); assay type: functional
[30] = target: Serine/threonine-protein kinase pim-1 (Homo sapiens, UniProt P11309); assay type: functional
[31] = target: Receptor-type tyrosine-protein kinase FLT3 (Homo sapiens, UniProt P36888); assay type: functional;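 further: FLT3 was tested as one member of a kinome-wide kinase panel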
[32] = target: T6, Mitochondrial peptide methionine sulfoxide reductase (Bos taurus, UniProt P54149); assay type: functional;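 further: absorbance read-out, biochemical high-throughput dose-response screen for MsrA inhibitors, confirmatory; recombinant bovine MsrA coupled to E. coli TrxB with NADPH and selenocystamine; potency is for inhibitors of MsrA activity on DMSO substrate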
T6 sequence (P54149 whole entry): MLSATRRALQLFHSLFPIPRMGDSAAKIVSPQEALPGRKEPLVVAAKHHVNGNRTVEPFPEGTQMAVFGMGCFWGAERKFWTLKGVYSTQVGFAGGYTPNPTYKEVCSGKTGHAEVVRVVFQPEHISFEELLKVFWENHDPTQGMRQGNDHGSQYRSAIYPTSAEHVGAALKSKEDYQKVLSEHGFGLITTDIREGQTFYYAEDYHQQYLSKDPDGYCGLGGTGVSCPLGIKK

T3 sequence (P32245 whole entry): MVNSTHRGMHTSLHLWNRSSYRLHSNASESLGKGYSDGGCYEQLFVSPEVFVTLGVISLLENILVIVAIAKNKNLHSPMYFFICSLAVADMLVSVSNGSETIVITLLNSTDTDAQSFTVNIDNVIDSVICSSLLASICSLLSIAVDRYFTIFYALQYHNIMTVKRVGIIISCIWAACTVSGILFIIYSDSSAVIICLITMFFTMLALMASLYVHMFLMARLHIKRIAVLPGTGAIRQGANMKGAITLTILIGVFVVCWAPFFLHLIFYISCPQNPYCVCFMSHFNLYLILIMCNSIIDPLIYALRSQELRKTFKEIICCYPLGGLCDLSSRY
Aryl hydrocarbon receptor, sequence (P35869 whole entry): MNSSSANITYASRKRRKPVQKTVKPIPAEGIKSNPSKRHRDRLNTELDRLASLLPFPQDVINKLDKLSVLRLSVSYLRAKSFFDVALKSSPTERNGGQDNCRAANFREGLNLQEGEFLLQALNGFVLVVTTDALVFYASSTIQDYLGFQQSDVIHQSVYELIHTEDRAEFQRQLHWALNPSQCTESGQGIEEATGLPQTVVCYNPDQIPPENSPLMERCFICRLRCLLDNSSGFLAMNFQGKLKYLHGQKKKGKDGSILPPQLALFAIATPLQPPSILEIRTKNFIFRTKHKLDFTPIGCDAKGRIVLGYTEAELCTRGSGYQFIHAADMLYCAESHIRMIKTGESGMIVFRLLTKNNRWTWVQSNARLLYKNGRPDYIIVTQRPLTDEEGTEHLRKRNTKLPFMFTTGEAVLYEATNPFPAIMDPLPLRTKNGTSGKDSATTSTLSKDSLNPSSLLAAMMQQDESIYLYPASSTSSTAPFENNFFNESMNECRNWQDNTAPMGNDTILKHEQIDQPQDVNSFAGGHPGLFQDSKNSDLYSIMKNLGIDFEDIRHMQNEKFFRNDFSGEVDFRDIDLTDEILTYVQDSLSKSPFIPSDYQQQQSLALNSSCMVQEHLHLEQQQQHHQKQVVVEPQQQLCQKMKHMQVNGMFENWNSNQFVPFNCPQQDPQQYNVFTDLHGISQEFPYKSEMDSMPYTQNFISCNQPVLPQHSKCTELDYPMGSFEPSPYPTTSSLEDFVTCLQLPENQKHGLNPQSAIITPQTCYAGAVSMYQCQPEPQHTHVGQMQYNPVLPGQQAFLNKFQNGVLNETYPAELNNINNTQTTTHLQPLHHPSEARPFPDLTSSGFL
Cytochrome P450 3A4, sequence (P08684 whole entry): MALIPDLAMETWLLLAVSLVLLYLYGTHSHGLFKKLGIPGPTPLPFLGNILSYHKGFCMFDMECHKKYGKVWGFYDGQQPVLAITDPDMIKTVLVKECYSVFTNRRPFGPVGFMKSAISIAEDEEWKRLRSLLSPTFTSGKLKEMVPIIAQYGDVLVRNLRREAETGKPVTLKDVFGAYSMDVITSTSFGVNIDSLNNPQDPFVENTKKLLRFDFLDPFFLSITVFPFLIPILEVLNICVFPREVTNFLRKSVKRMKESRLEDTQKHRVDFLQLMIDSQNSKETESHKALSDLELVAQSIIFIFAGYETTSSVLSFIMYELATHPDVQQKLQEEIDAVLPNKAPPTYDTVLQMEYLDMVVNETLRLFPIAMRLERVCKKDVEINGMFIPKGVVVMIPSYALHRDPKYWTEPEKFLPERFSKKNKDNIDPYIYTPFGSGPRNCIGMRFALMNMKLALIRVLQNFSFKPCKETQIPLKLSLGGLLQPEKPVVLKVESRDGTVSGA
Adenosylmethionine-8-amino-7-oxononanoate aminotransferase, sequence (P9WQ81 whole entry): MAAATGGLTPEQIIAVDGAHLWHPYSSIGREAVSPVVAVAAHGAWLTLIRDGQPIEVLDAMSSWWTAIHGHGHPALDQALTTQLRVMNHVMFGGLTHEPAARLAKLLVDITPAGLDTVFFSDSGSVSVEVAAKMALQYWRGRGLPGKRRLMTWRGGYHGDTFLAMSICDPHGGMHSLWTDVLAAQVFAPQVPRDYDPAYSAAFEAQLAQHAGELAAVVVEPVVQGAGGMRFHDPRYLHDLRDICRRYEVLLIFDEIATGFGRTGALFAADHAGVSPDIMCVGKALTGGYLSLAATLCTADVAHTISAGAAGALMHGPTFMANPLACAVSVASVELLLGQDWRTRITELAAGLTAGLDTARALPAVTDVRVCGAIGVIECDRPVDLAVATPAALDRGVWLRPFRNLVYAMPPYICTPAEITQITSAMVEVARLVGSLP
Receptor-type tyrosine-protein kinase FLT3, sequence (P36888 whole entry): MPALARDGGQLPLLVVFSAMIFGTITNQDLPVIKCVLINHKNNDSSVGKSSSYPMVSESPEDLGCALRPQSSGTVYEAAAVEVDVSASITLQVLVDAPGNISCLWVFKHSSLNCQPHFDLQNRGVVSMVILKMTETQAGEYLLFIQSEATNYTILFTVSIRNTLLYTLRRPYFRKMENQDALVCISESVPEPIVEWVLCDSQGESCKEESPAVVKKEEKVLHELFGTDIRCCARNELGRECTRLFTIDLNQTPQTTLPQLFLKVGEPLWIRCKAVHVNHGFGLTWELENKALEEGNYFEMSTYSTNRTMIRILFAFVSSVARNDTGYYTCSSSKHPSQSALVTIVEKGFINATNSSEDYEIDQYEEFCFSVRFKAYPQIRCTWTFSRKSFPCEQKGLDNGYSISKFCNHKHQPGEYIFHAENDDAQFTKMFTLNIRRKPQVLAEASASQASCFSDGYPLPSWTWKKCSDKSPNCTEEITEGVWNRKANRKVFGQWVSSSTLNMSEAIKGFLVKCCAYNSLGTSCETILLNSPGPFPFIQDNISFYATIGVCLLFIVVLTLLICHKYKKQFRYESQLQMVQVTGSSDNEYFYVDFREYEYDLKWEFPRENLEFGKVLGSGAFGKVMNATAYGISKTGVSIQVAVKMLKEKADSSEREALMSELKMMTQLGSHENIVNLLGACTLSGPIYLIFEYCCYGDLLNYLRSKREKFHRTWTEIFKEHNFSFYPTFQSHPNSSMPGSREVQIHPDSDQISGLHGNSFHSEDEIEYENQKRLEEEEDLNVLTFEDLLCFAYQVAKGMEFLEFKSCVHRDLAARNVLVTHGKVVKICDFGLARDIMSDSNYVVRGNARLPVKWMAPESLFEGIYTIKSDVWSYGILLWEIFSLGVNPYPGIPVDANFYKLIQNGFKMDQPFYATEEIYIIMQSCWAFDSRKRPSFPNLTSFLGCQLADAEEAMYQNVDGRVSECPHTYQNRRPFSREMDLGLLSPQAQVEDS
Aurora kinase B, sequence (Q96GD4 whole entry): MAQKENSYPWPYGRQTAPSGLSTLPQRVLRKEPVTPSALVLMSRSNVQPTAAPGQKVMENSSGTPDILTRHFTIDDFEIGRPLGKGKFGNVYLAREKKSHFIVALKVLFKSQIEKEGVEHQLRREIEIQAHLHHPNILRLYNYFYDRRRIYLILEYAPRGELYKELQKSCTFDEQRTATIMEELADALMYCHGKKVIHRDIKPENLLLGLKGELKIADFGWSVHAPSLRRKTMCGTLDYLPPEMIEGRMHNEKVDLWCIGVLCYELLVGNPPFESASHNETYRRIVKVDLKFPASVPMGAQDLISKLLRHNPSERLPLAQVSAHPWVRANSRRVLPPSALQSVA
Aurora kinase A, sequence (O14965 whole entry): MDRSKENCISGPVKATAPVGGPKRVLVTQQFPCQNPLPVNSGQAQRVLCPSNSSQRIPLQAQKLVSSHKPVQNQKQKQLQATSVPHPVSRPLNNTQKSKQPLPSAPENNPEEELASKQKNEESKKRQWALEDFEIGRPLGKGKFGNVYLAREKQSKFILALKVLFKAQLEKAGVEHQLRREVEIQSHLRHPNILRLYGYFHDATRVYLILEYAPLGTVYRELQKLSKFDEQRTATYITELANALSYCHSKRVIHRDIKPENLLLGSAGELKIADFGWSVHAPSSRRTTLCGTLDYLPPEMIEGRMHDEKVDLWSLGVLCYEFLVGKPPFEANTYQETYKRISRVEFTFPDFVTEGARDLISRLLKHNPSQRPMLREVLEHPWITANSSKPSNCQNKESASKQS
Protein Wnt-3a, sequence (P27467 whole entry): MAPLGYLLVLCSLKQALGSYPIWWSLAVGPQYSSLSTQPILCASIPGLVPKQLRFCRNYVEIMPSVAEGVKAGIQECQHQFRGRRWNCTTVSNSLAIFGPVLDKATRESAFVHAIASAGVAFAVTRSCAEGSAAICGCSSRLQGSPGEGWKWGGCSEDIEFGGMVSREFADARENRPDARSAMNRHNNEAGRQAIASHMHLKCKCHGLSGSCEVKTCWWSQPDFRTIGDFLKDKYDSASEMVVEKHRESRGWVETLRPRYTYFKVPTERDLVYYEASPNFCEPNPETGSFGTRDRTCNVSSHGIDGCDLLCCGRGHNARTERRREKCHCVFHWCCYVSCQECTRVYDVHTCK
Estrogen receptor beta, sequence (Q92731 whole entry): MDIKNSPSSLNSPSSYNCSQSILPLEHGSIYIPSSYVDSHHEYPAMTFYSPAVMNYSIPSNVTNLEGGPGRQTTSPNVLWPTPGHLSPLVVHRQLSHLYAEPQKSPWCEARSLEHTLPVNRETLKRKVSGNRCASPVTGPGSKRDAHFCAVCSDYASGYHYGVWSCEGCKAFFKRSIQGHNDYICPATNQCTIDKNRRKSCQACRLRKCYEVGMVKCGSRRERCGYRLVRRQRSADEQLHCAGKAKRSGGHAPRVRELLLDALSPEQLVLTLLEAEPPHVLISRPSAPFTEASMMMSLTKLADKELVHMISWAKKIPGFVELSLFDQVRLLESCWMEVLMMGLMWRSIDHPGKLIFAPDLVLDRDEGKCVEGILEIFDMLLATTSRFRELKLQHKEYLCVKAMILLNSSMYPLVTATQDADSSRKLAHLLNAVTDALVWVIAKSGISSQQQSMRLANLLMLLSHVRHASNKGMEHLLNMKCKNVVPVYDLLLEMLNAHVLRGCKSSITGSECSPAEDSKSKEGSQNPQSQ
Beta-lactamase (Pseudomonas aeruginosa, UniProt Q79MP6), sequence (Q79MP6 whole entry): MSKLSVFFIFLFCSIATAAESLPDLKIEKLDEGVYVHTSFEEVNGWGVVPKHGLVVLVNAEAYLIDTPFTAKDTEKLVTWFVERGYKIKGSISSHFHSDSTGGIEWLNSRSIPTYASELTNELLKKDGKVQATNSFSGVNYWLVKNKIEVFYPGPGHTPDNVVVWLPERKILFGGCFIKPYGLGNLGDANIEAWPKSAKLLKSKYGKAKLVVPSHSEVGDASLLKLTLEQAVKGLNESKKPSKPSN

With COc1ccc(C2=[N+](C)CCn3cccc32)c(OC)c1 the IC50 [1] was > 50 µM (inactive) and the IC50 [2] was 7 µM (active).

For Cc1noc(C)c1COC(=O)c1cnc(Cl)c(Cl)c1, the IC50 [3] was 10 µM (active) and the IC50 [4] was 5.01 µM (active).

For CCOc1cc(NC(=O)c2cccs2)c(OCC)cc1NC(=O)c1ccco1, the IC50 [5] was > 50 µM (not active), the EC50 [6] was > 89.1 µM (inactive) and the AC50 [7] was 0.708 µM (inconclusive). For the same compound, the AC50 [8] was 0.178 µM (inconclusive) and the AC50 [9] was 0.0355 µM (inconclusive).

In the case of CCOC(=O)CCC(=O)Nc1ccc(S(=O)(=O)N2CCc3ccccc32)cc1, the IC50 [10] is reported as > 64.6 µM (inactive) and the IC50 [11] is reported as > 64.6 µM (inactive).

For CCOC(=O)c1cc(C)nc(S(C)(=O)=O)c1C#N, the IC50 [10] was > 64.6 µM (inactive) and the IC50 [11] was > 64.6 µM (inactive).

With COc1ccc(NC(=O)c2ccc(Cl)nc2)cc1S(=O)(=O)N1CCOCC1 the AC50 [12] was 2.27 µM (active).

With COc1ccc(C(=O)C[n+]2cccc(C)c2)cc1 the IC50 [3] was 2.43 µM (active) and the IC50 [4] was 2.05 µM (active).

With C[C@@H]1CN([C@@H](C)CO)C(=O)c2cccc(NC(=O)Nc3cccc4ccccc34)c2O[C@H]1CN(C)C(=O)NC1CCCCC1 the AC50 [13] was 37.8 µM (active), the AC50 [14] was 24.6 µM (active) and the AC50 [15] was 5.39 µM (active).

For COc1ccccc1S(=O)(=O)N(C)C[C@@H]1Oc2c(NC(=O)Nc3cccc4ccccc34)cccc2C(=O)N([C@@H](C)CO)C[C@H]1C, the AC50 [13] was 45.1 µM (active) and the AC50 [14] was 47.2 µM (active).

With N#CSCSc1nc2ccccc2s1 the AC50 [16] was 50.1 µM (inconclusive).

For O=C(O)c1coc(-c2ccc(F)cc2)n1, the EC50 [17] was > 100 µM (inactive).

With CN(/N=C/c1ccc(N(C)C)cc1)C1=NS(=O)(=O)c2ccccc21 the IC50 [18] was 15 µM (inactive), the EC50 [19] was 27.9 µM (active) and the EC50 [20] was 47 µM (active). The IC50 [21] was 13.4 µM (inactive), the EC50 [22] was > 150 µM (not active) and the IC50 [23] was 23 µM (inactive). For the same compound, the EC50 [24] was 84.8 µM (active), the EC50 [25] was 4.5 µM (active) and the EC50 [26] was > 99 µM (inactive). The EC50 [27] was > 99 µM (inactive).

In the case of Cc1cc(N=Cc2ccc(O)c(O)c2)c2ccccc2n1, the Ki [28] is reported as 0.0251 µM (active) and the Ki [29] is reported as 0.00631 µM (active).

In the case of c1ccc(C2Cc3cn[nH]c3C2)cc1 (stereo not drawn), the Ki [30] is reported as 79.4 µM (active) and the Ki [31] is reported as 15.8 µM (active).

For COc1ccc(/C=N\NC(=O)/C(=C\Nc2nccc(C)n2)NC(=O)c2ccccc2)cc1, the IC50 [32] was 149 µM (inactive).
